From PMC10772347 (Cell Reports Medicine, 2023)

Assays:
NEK7 [1] = molecular target: NEK7 (Homo sapiens, UniProt Q8TDX7); assay: DARTS; format: cell-based
NEK7 [2] = molecular target: NEK7 (Mus musculus, UniProt Q9ES74); assay: CETSA in BMDMs and DARTS in BMDM lysate; format: cell-based
Chain of NEK7 (Mus musculus, UniProt Q9ES74) (Q9ES74 whole entry): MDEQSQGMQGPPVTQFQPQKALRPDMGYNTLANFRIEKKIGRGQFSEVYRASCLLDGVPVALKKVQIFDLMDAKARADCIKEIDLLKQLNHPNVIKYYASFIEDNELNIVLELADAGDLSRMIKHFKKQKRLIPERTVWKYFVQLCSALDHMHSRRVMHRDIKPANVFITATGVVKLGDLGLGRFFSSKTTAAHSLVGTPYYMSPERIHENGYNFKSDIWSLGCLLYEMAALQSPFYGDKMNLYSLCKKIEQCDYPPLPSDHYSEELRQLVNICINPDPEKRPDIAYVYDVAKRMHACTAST

Chain of NEK7 (Homo sapiens, UniProt Q8TDX7) (Q8TDX7 whole entry, looked up): as the sequence (Q9ES74 whole entry) above, with T14P, S52A, D150E, I273M, I285V, A286T, T302S counted along it

SMILES: CN1CCN(c2ccc(C(=O)Nc3n[nH]c4ccc(Cc5cc(F)cc(F)c5)cc34)c(NC3CCOCC3)c2)CC1 [ENB, entrectinib]
- DARTS (pronase) in lysate of HEK293T cells overexpressing WT or mutant NEK7 (200) (NEK7 [1]): R121A, but not I40A mutation, abolished NEK7 binding to ENB (Figure 4D), suggesting that ENB binds to R121 of NEK7
- CETSA in BMDMs and DARTS in BMDM lysate (200 uM ENB) (NEK7 [2]): ENB significantly enhanced the thermal stability of NEK7 even at higher temperatures compared with the DMSO-treated group
